From patent publication US20230050653A1, “ROCK INHIBITOR AND PREPARATION METHOD THEREFOR AND USE THEREOF” (WUHAN LL SCIENCE AND TECHNOLOGY DEVELOPMENT CO., LTD., priority 2019, published 2023)

How the values were obtained:
ROCK1 kinase = target: T1, ROCK1 kinase (Homo sapiens, UniProt Q13464); assay: In vitro evaluation of ROCK1 kinase selectivity (HTRF KinEASE-STK time-resolved fluorometric assay); assay type: biochemical
T1 construct: purchased Invitrogen
In short: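 Recombinant ROCK1 (0.4 ng/μL final) preincubated with compound (1% DMSO) for 0.5 h at room temperature in buffer with 5 mM MgCl2 and 1 mM DTT. Reaction started with ATP and biotinylated STK-substrate 2 (3.53 μM and 1 μM final), run 2 h at room temperature. HTRF detection with STK antibody-Cryptate/streptavidin-XL665 after about 1 h.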

ROCK2 kinase = target: T2, ROCK2 kinase (Homo sapiens, UniProt O75116); assay: In vitro evaluation of ROCK2 kinase activity (HTRF KinEASE-STK time-resolved fluorometric assay); assay type: biochemical
T2 construct: purchased Invitrogen PV3759
T2 sequence (O75116 whole entry): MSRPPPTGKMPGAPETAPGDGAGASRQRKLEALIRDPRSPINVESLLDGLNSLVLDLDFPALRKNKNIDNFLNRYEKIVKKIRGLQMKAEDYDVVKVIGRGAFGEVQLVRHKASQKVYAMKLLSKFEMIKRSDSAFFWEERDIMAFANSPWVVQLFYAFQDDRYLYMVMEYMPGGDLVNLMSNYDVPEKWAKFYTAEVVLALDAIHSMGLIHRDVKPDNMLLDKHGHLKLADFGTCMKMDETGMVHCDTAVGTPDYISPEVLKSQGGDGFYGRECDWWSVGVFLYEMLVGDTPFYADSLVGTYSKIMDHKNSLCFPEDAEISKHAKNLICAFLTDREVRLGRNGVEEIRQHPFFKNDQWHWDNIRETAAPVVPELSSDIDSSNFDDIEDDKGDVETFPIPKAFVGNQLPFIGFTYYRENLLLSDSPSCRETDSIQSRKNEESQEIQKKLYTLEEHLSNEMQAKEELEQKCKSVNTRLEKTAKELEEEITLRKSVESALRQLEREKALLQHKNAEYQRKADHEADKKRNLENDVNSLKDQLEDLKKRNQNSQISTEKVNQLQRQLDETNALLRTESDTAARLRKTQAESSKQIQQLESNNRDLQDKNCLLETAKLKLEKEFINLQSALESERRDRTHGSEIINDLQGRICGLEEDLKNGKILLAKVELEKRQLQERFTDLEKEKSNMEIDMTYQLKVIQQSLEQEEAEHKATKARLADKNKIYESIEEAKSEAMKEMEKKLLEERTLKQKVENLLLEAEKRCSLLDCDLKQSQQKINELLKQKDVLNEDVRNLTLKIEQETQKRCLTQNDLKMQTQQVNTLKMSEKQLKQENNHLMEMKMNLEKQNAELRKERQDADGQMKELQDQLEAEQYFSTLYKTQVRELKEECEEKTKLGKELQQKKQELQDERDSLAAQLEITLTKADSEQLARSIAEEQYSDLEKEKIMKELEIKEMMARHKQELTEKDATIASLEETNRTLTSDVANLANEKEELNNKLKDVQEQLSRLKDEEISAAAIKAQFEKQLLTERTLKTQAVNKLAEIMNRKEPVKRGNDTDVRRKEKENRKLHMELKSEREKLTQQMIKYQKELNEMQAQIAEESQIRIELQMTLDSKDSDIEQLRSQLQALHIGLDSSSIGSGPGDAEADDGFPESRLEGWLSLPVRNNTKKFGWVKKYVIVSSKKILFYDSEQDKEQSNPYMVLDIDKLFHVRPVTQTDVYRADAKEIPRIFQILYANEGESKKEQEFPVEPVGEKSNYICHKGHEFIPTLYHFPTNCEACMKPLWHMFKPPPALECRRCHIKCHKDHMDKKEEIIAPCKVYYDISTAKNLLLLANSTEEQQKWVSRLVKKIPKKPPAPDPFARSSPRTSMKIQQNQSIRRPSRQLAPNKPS
In short: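 ROCK2 (0.4 ng/μL final) was preincubated with compound (1% DMSO) for 0.5 h at room temperature in kinase buffer with 5 mM MgCl2, 1 mM DTT. Reaction with ATP 6.739 μM and STK-substrate 2-biotin 1 μM ran 2 h at room temperature; HTRF read-out after ~1 h detection.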

[1] = In vivo pharmacokinetic study in mice; conditions: mouse, plasma
Description: In Vivo Pharmacokinetic Study of Compounds Disclosed Herein in Mice SPF-grade mice (SPF (Beijing) Biotechnology Co., Ltd.) were fasted overnight (without water deprivation) after adaptive feeding, and then received the compound of the present disclosure by intragastrical administration and bolus injection at tail vein. After administration, plasma of mice was collected at specific time points, and the concentration of the compound in the plasma was detected by LC-MS/MS (AB SCIEX Qtrap4500). The PK parameters of the compounds were statistically analyzed and calculated (WinNonlin V5.2, Pharsight) to show the pharmacokinetic properties of the compounds in mice.

[2] = In vitro cytotoxicity assay in HepG2 cells, CCK-8 method; conditions: human
Description: In vitro cytotoxicity assay for the compounds disclosed herein was performed in HepG2 cells using the CCK-8 method. HepG2 cells (Beina Bio) in the logarithmic growth phase were collected, the concentration of cell suspension was adjusted, and then the cells were plated on a 96-well cell culture plate at 50,000 cells/well. The cells were then incubated overnight in a cell incubator (5%, 37° C.), and after 80-90% cell confluence was achieved, test compound at each concentration gradient or vehicle (DMSO) was added after medium change. The resulting mixture was incubated in the cell incubator (5%, 37° C.) for 48 h. After the treatment, the medium in the plate was discarded. The plate was washed twice with PBS, added with CCK-8 working solution (Beyotime) at 100 μL per well, and then incubated at 37° C. for 1.5 h in the dark. Absorbance at OD450 nm was measured for each well on a microplate reader, and CC50 value of each compound was analyzed and calculated.

T1 sequence (Q13464 whole entry): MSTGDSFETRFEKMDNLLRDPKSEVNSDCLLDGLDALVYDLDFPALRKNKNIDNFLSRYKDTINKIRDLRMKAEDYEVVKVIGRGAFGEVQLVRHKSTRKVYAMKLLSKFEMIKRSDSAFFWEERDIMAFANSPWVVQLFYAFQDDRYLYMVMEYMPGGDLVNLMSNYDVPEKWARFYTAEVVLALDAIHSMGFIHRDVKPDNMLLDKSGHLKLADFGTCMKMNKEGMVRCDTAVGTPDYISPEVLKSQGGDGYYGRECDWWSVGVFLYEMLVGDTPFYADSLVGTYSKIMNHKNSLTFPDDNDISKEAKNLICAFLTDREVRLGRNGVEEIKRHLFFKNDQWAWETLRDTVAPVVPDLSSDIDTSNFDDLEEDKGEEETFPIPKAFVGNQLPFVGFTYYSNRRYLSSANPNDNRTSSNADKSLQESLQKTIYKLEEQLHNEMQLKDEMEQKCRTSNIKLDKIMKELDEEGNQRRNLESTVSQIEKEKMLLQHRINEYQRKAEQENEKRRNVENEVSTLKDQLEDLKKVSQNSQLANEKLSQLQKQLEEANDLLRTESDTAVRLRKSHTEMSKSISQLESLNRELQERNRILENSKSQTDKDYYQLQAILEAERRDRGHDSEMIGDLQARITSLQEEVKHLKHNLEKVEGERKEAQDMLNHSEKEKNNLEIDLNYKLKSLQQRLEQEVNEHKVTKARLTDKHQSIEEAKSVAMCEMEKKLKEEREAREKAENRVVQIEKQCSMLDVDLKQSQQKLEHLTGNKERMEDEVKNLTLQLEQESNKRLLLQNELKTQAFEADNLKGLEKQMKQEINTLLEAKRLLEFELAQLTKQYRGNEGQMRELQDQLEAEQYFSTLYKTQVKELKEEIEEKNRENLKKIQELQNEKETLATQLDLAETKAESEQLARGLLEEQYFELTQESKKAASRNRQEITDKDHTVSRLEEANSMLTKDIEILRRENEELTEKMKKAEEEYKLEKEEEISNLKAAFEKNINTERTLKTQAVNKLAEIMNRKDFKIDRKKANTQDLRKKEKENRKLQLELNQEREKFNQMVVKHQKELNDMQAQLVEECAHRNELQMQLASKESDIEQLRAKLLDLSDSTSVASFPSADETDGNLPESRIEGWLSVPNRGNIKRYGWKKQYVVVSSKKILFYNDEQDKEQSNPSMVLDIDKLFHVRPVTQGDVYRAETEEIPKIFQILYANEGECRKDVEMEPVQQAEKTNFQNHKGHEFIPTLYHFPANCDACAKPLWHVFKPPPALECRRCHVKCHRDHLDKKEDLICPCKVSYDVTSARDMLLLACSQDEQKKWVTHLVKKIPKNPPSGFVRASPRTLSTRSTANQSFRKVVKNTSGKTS

| SMILES | IC50 (ROCK1 kinase) [nM] | IC50 (ROCK2 kinase) [nM] | bioavailability ([1]; 1 mg/kg Po vs Iv) [%] | AUC(0-t) ([1]; Iv, 1 mg/kg) [ng·h/mL] | Cmax ([1]; Iv, 1 mg/kg) [ng/mL] | AUC(0-t) ([1]; Po, 1 mg/kg) [ng·h/mL] | Cmax ([1]; Po, 1 mg/kg) [ng/mL] | CC50 at 48 h [2] [nM] | bioavailability ([1]; 3 mg/kg Po vs Iv) [%] | AUC(0-t) ([1]; Iv, 3 mg/kg) [ng·h/mL] | Cmax ([1]; Iv, 3 mg/kg) [ng/mL] | AUC(0-t) ([1]; Po, 3 mg/kg) [ng·h/mL] | Cmax ([1]; Po, 3 mg/kg) [ng/mL] | CC50 (HepG2 cells) [nM] |
| --- | --- | --- | --- | --- | --- | --- | --- | --- | --- | --- | --- | --- | --- | --- |
| COc1cccc(CNC(=O)N2CCc3cc(-c4c[nH]nc4F)c(F)cc32)c1 [Compound T357, 6-fluoro-5-(3-fluoro-1H-pyrazol-4-yl)-N-(3-methoxybenzyl)indoline-1-carboxamide] | ≤ 50 | ≤ 50 | 71.1 | 1090 | 811 | 775 | 352 | 96000 |  |  |  |  |  |  |
| COc1cccc(CNC(=O)N2CCc3cc(-c4c[nH]nc4N)c(F)cc32)c1 [Compound T345, 5-(3-amino-1H-pyrazol-4-yl)-6-fluoro-N-(3-methoxybenzyl)indoline-1-carboxamide] | 50 to 500 | ≤ 50 | 49.1 | 1260 | 977 | 618 | 322 | 40800 |  |  |  |  |  |  |
| COc1cccc(CNC(=O)c2ncn3cc(-c4cn[nH]c4)ccc23)c1 [Compound T361, N-(3-methoxybenzyl)-6-(1H-pyrazol-4-yl)imidazo[1,5-a]pyridine-1-carboxamide] | 50 to 500 | ≤ 50 |  |  |  |  |  | > 100000 |  |  |  |  |  |  |
| O=C(NCc1cccc(OCC2CC2)c1)N1CCc2cc(-c3c[nH]nc3F)c(F)cc21 [Compound T380, N-(3-(cyclopropylmethoxy)benzyl)-6-fluoro-5-(3-fluoro-1H-pyrazol-4-yl)indoline-1-carboxamide] | 50 to 500 | ≤ 50 |  |  |  |  |  | 35300 |  |  |  |  |  |  |
| COc1cc(F)cc(CNC(=O)N2CCc3cc(-c4c[nH]nc4N)c(F)cc32)c1 [Compound T385, 5-(3-amino-1H-pyrazol-4-yl)-6-fluoro-N-(3-fluoro-5-methoxybenzyl)indoline-1-carboxamide] | 50 to 500 | ≤ 50 |  |  |  |  |  | > 100000 |  |  |  |  |  |  |
| O=C(NCc1cc(F)cc(F)c1)N1CCc2cc(-c3cn[nH]c3F)c(F)cc21 [Compound T387, N-(3,5-difluorobenzyl)-6-fluoro-5-(5-fluoro-1H-pyrazol-4-yl)indoline-1-carboxamide] | ≤ 50 | ≤ 50 | 82.8 | 753 | 492 | 623 | 188 | > 100000 |  |  |  |  |  |  |
| COc1cc(F)cc(CNC(=O)N2CCc3cc(-c4cn[nH]c4)ccc32)c1 [Compound T202, N-(3-fluoro-5-methoxybenzyl)-5-(1H-pyrazol-4-yl)indoline-1-carboxamide] | ≤ 50 | ≤ 50 |  |  |  |  |  | > 50000 | 90.3 | 1740 | 2340 | 1570 | 807 |  |
| COc1cc(F)cc(C(=O)NC(=O)c2cn(C)c3cc(-c4cn[nH]c4)ccc23)c1 [Compound T203, 1-methyl-6-(1H-pyrazol-4-yl)-1H-indole-3-carboxylic acid-3-fluoro-5-methoxy-benzoylamide] |  |  |  |  |  |  |  |  |  |  |  |  |  | > 50000 |
